Values quoted from earlier work as cited in US5614503A, “Amphipathic nucleic acid transporter” (Aronex Pharmaceuticals, Inc., priority 1995, dated 1997).

What was measured:
[1] = Moore et al., 1993
[2] = tested on: animal cells; conditions: some types of animal cells; Felgner, 1990

**Q.** For `CC(C)[C@@H](CC[C@@H](C)[C@H]1CC[C@H]2[C@@H]3[C@H](O)C[C@H]4C[C@@H](NCCCNCCCCN)CC[C@]4(C)[C@H]3CC[C@]12C)OS(=O)(=O)O` [squalamine], which antibiotic activity [1] is on record?
**A.** broad-spectrum antibiotic

**Q.** Which “effect on uptake kinetics of nucleic acids” value [2] does the source give for `CCCCCCCC/C=C\CCCCCCCCOCC(C[N+](C)(C)C)OCCCCCCCC/C=C\CCCCCCCC` (centres unmarked) [DOTMA] here?
**A.** can improve the uptake kinetics of nucleic acids
